One data set relates to HCC70. In words: Propidium iodide incorporation (Incucyte Zoom) in HCC70 cells with netrin-1 silencing. The class given is cell-based. The following applies: up to 24 hours. As to the method: FIG. 10. Cell death assessment by combining netrin-1 silencing and Navitoclax. To assess cell death, Propidium iodide (PI) incorporation, normalized to cell confluence, was followed in real-time up to 24 hours by Incucyte Zoom technology for scramble (siCTRL), netrin-1 (siNet), scramble (siCTRL) and Navitoclax, netrin-1 (siNet) and Navitoclax.
In addition, breast cancer HCC70 were transfected with scramble (siCTRL) or netrin-1 (siNet) targeting siRNAs. 24 hours after transfection, cells were detached, plated again in 24-well plate and treated with 0.5 µM of the Bcl-2/Bcl-XL/Bcl-w inhibitor Navitoclax (Tse et al, Cancer Res, 2008; Shoemaker et al, Clin Cancer Res, 2008). To assess cell death, propidium iodide (PI) incorporation, normalized to cell confluence, was followed in real-time up to 24 hours by Incucyte Zoom technology.

The conditions of data set [1]: cited from earlier work.
The test system of the next data set is caspase-9. Description: UNC5B-induced caspase-9 activity in HeLa UNC5B cells. The note with it: Dox; 18 hours. The class given is cell-based, Human. As to the method:
FIG. 5. UNC5B-mediated Mcl-1 degradation induces MOMP and caspase-9 activation. (A): UNC5B over-expression triggers Mitochondrial Outer Membrane Permeabilization (MOMP) in a COMMD2/CRL3 complex-dependent manner. Hela cells were transfected with scramble (siCTRL), COMMD2 (siCOMMD2-1) or RBX1 (siRBX1-1) siRNAs. 24 hours after transfection, cells were treated with Dox and after further 18 hours mitochondrial depolarization quantified by 5′,6,6′-tetrachloro-1,1′,3,3′-tetraethylbenzimi-dazolylcarbocyanine iodide (JC-1) dye staining, using NucleoCounter NC3000 (n=3, **** p<0.0001, ordinary two-way ANOVA with Tukey's multiple comparisons test). Values are given as means±SEM. (B,C,D): Apoptotic cell death induced by UNC5B over-expression requires caspase-9. HeLa UNC5B cells were transfected with scramble (siCTRL) or caspase-9 (siCASP9) siRNAs and 24 hours later treated with the indicated concentrations of Dox. Propidium iodide (PI)-positive cells were assessed in real-time up to 48 hours using Incucyte Zoom instrument (C) (n=[…], Kolmogorov-Smirnov test). DNA fragmentation was assessed by FACS analysis (D) and caspase-3 was measured using caspase-3 fluorometric kit (E), both 18 hours after treatment (n=[…], **** p<0.0001, ordinary two-way ANOVA with Šidák's multiple comparisons test). Values are given as means±SEM. […] HeLa UNC5B cells were treated with Dox and 18 hours later caspase-9 and -8 activities were assessed by fluorometric kit, using specific substrates (n=3, ^nsp>0.05, *p<0.05, Mann-Whitney test, one-tailed). […] 24 hours later, cells were treated with Dox and caspase-9 activity was measured by fluorometric kit (n=3, **** p<0.0001, ordinary two-way ANOVA with Tukey's multiple comparisons test). […] 18 hours after treatment, caspase-9 activity was assessed with the fluorometric kit (n=5, *p<0.05, ** p<0.01, *** p<0.001, **** p<0.0001, ordinary two-way ANOVA with Tukey's multiple comparisons test). […] Cells were then treated with Dox and Mcl-1 protein was evaluated by western blot. […]

In the next data set the test system is UNC5B-induced cell death. In words: UNC5B-induced cell death under inhibition of neddylation. It counts as cell-based.

Take `CC1(C)CCC(c2ccc(Cl)cc2)=C(CN2CCN(c3ccc(C(=O)NS(=O)(=O)c4ccc(N[C@H](CCN5CCOCC5)CSc5ccccc5)c(S(=O)(=O)C(F)(F)F)c4)cc3)CC2)C1` [Navitoclax]: the “cell death induction (PI incorporation)” value was “slight effect on cell death induction” in the data set with HCC70 (0.5 µM alone (siCTRL)); “quickly and strongly triggered apoptosis” in the data set with HCC70 (0.5 µM combined with netrin-1 silencing (siNet)).
As to `Cc1c(-c2c(-c3ccc(F)o3)sc3ncnc(O[C@H](Cc4ccccc4OCc4ccnn4CC(F)(F)F)C(=O)O)c23)ccc(OCCN2CCN(C)CC2)c1Cl` [S63845], in data set [1] (Brennan et al., 2018), the tolerability entry is recorded as “overall good tolerability”. Moreover, the B-cell population result in data set [1] (during treatment (Brennan et al., 2018)) was “decrease in the B-cell population”.
Regarding `NS(=O)(=O)OC[C@@H]1C[C@@H](n2ccc3c(N[C@H]4CCc5ccccc54)ncnc32)C[C@@H]1O` [pevonedistat], the “UNC5B-induced caspase-9 activation” value with caspase-9 is listed as “sufficient to prevent UNC5B-induced caspase-9 activation”. Also, the UNC5B-induced cell death result in the data set with UNC5B-induced cell death is given as “prevented UNC5B-induced cell death”.

Values taken from patent publication US20250215071A1, “Novel Mcl-1 inhibitor and combination of Mcl-1 and a BH3 mimetic, such as a Bcl-2 inhibitor” (NETRIS PHARMA, priority 2022, published 2025).
